# Experimental data: publication PMC12777568 (Antimicrobial Agents and Chemotherapy, 2025)
# Like-named read-outs stand apart in the source and are kept apart here.
# Assay: BIC plasma pharmacokinetics, Phase 1 open-label single-dose DDI study GS-US-380-3909 (B/F/TAF 50/200/25 mg with antacid or mineral supplements)
# Assay type: in vivo, human
# Conditions: both sexes, human, plasma, oral; for AUC(0-t): BIC plasma AUClast; for Tmax: BIC plasma Tmax, median (Q1, Q3)
# Method: Eligible participants were adult (18–45 years) males and non-pregnant, non-lactating females in good general health at a screening evaluation performed no more than 28 days before the first study dose. […] Full eligibility criteria are available in the supplement. All prescription and over-the-counter medications except vitamins, acetaminophen, ibuprofen, and hormonal contraceptives were not permitted during study participation. Three dosing cohorts were evaluated (Table 1). […] Vitamins and/or other supplements were not permitted on the dosing day. […] Participants received maximum-strength antacid oral suspension (four teaspoons; 20 mL; 1,600 mg aluminum hydroxide/1,600 mg magnesium hydroxide/160 mg simethicone; referred to as “aluminum/magnesium-containing antacid”) on Day 9, calcium carbonate (1,200 mg; 2 × 600 mg tablets) on Day 17, and ferrous fumarate (1 × 324 mg tablet) on Day 25. […] All samples were analyzed within the timeframe determined using frozen stability storage data. […] PK parameters were estimated using Phoenix WinNonlin software (Version 6.4, Pharsight Corporation, Princeton, NJ, USA) using standard noncompartmental analysis methods. […] The estimated 90% CIs were compared to a prespecified lack of DDI boundary of 70%–143%. […] A minimum of 12 evaluable participants in each cohort was calculated to be needed to reject the null hypothesis (i.e., the 90% CI for the GLSM ratio for each PK parameter was outside the prespecified boundary) with ≥90% power.
smiles,measurement,setting,value
"O=C(NCc1c(F)cc(F)cc1F)c1cn2c(c(O)c1=O)C(=O)N1[C@H]3CC[C@H](C3)O[C@@H]1C2 [BIC, bictegravir]",AUC(0-inf),"BIC plasma AUCinf, mean (%CV), Cohort 2 fasted, B/F/TAF 2 hours before aluminum/magnesium-containing antacid, N = 13",116000 ng·h/mL
same,AUC(0-inf),"BIC plasma AUCinf, mean (%CV), Cohort 2 fasted, B/F/TAF alone, N = 14",133000 ng·h/mL
same,AUC(0-inf),"BIC plasma AUCinf, mean (%CV), Cohort 3, B/F/TAF alone (fasted), N = 14",93700 ng·h/mL
same,AUC(0-inf),"BIC plasma AUCinf, mean (%CV), Cohort 3 fed, B/F/TAF + aluminum/magnesium-containing antacid simultaneous, N = 14",50800 ng·h/mL
same,AUC(0-inf),"BIC plasma AUCinf, mean (%CV), Cohort 3 fed, B/F/TAF + calcium carbonate simultaneous, N = 14",94800 ng·h/mL
same,AUC(0-inf),"BIC plasma AUCinf, mean (%CV), Cohort 3 fed, B/F/TAF + ferrous fumarate simultaneous, N = 14",77300 ng·h/mL
same,AUC(0-t),"mean (%CV), Cohort 1 fasted, B/F/TAF + aluminum/magnesium-containing antacid simultaneous, N = 14",26200 ng·h/mL
same,AUC(0-t),"mean (%CV), Cohort 1 fasted, B/F/TAF + calcium carbonate simultaneous, N = 14",80400 ng·h/mL
same,AUC(0-t),"mean (%CV), Cohort 1 fasted, B/F/TAF + ferrous fumarate simultaneous, N = 14",43400 ng·h/mL
same,AUC(0-t),"mean (%CV), Cohort 1 fasted, B/F/TAF alone, N = 14",117000 ng·h/mL
same,AUC(0-t),"mean (%CV), Cohort 2 fasted, B/F/TAF 2 hours after aluminum/magnesium-containing antacid, N = 13",63400 ng·h/mL
same,AUC(0-t),"mean (%CV), Cohort 2 fasted, B/F/TAF 2 hours before aluminum/magnesium-containing antacid, N = 13",111000 ng·h/mL
same,AUC(0-t),"mean (%CV), Cohort 2 fasted, B/F/TAF alone, N = 14",125000 ng·h/mL
same,AUC(0-t),"mean (%CV), Cohort 3, B/F/TAF alone (fasted), N = 14",91200 ng·h/mL
same,AUC(0-t),"mean (%CV), Cohort 3 fed, B/F/TAF + aluminum/magnesium-containing antacid simultaneous, N = 14",49200 ng·h/mL
same,AUC(0-t),"mean (%CV), Cohort 3 fed, B/F/TAF + calcium carbonate simultaneous, N = 14",91500 ng·h/mL
same,AUC(0-t),"mean (%CV), Cohort 3 fed, B/F/TAF + ferrous fumarate simultaneous, N = 14",74500 ng·h/mL
same,concentration at 24 h,"BIC plasma C24, mean (%CV), Cohort 1 fasted, B/F/TAF + aluminum/magnesium-containing antacid simultaneous, N = 14",430 ng/mL
same,concentration at 24 h,"BIC plasma C24, mean (%CV), Cohort 1 fasted, B/F/TAF + calcium carbonate simultaneous, N = 14",1220 ng/mL
same,concentration at 24 h,"BIC plasma C24, mean (%CV), Cohort 1 fasted, B/F/TAF + ferrous fumarate simultaneous, N = 14",670 ng/mL
same,concentration at 24 h,"BIC plasma C24, mean (%CV), Cohort 1 fasted, B/F/TAF alone, N = 14",1800 ng/mL
same,concentration at 24 h,"BIC plasma C24, mean (%CV), Cohort 2 fasted, B/F/TAF 2 hours after aluminum/magnesium-containing antacid, N = 13",990 ng/mL
same,concentration at 24 h,"BIC plasma C24, mean (%CV), Cohort 2 fasted, B/F/TAF 2 hours before aluminum/magnesium-containing antacid, N = 13",1700 ng/mL
same,concentration at 24 h,"BIC plasma C24, mean (%CV), Cohort 2 fasted, B/F/TAF alone, N = 14",2010 ng/mL
same,concentration at 24 h,"BIC plasma C24, mean (%CV), Cohort 3, B/F/TAF alone (fasted), N = 14",1410 ng/mL
same,concentration at 24 h,"BIC plasma C24, mean (%CV), Cohort 3 fed, B/F/TAF + aluminum/magnesium-containing antacid simultaneous, N = 14",800 ng/mL
same,concentration at 24 h,"BIC plasma C24, mean (%CV), Cohort 3 fed, B/F/TAF + calcium carbonate simultaneous, N = 14",1460 ng/mL
same,concentration at 24 h,"BIC plasma C24, mean (%CV), Cohort 3 fed, B/F/TAF + ferrous fumarate simultaneous, N = 14",1230 ng/mL
same,Cmax,"BIC plasma Cmax, mean (%CV), Cohort 1 fasted, B/F/TAF + aluminum/magnesium-containing antacid simultaneous, N = 14",1200 ng/mL
same,Cmax,"BIC plasma Cmax, mean (%CV), Cohort 1 fasted, B/F/TAF + ferrous fumarate simultaneous, N = 14",1670 ng/mL
same,Cmax,"BIC plasma Cmax, mean (%CV), Cohort 2 fasted, B/F/TAF 2 hours after aluminum/magnesium-containing antacid, N = 13",2740 ng/mL
same,Cmax,"BIC plasma Cmax, mean (%CV), Cohort 3 fed, B/F/TAF + aluminum/magnesium-containing antacid simultaneous, N = 14",2450 ng/mL
same,Cmax,"BIC plasma Cmax, mean (%CV), Cohort 3 fed, B/F/TAF + calcium carbonate simultaneous, N = 14",4110 ng/mL
same,Tmax,"Cohort 1 fasted, B/F/TAF + ferrous fumarate simultaneous, N = 14",3.5 h
same,Tmax,"Cohort 3 fed, B/F/TAF + aluminum/magnesium-containing antacid simultaneous, N = 14",3.5 h
same,Tmax,"Cohort 3 fed, B/F/TAF + calcium carbonate simultaneous, N = 14",3.5 h
same,Tmax,"Cohort 3 fed, B/F/TAF + ferrous fumarate simultaneous, N = 14",4 h
same,AUC(0-inf),"Cohort 1 fasted, B/F/TAF with aluminum/magnesium-containing antacid simultaneous, N = 14, read-out: AUCinf, test GLSM",25200 ng·h/mL
same,concentration at 24 h,"Cohort 1 fasted, B/F/TAF with aluminum/magnesium-containing antacid simultaneous, N = 14, read-out: C24, test GLSM",380 ng/mL
same,Cmax,"Cohort 1 fasted, B/F/TAF with aluminum/magnesium-containing antacid simultaneous, N = 14, read-out: Cmax, test GLSM",1100 ng/mL
same,AUC(0-inf),"Cohort 1 fasted, B/F/TAF with calcium carbonate simultaneous, N = 14, read-out: AUCinf, test GLSM",79100 ng·h/mL
same,concentration at 24 h,"Cohort 1 fasted, B/F/TAF with calcium carbonate simultaneous, N = 14, read-out: C24, test GLSM",1130 ng/mL
same,Cmax,"Cohort 1 fasted, B/F/TAF with calcium carbonate simultaneous, N = 14, read-out: Cmax, test GLSM",3230 ng/mL
same,AUC(0-inf),"Cohort 1 fasted, B/F/TAF with ferrous fumarate simultaneous, N = 14, read-out: AUCinf, test GLSM",44000 ng·h/mL
same,concentration at 24 h,"Cohort 1 fasted, B/F/TAF with ferrous fumarate simultaneous, N = 14, read-out: C24, test GLSM",640 ng/mL
same,Cmax,"Cohort 1 fasted, B/F/TAF with ferrous fumarate simultaneous, N = 14, read-out: Cmax, test GLSM",1610 ng/mL
same,AUC(0-inf),"Cohort 1 fasted, BIC alone (N = 14), read-out: AUCinf, reference GLSM",119000 ng·h/mL
same,concentration at 24 h,"Cohort 1 fasted, BIC alone (N = 14), read-out: C24, reference GLSM",1740 ng/mL
same,AUC(0-inf),"Cohort 2 fasted, B/F/TAF 2 h after aluminum/magnesium-containing antacid, N = 14, read-out: AUCinf, test GLSM",61100 ng·h/mL
same,concentration at 24 h,"Cohort 2 fasted, B/F/TAF 2 h after aluminum/magnesium-containing antacid, N = 14, read-out: C24, test GLSM",900 ng/mL
same,Cmax,"Cohort 2 fasted, B/F/TAF 2 h after aluminum/magnesium-containing antacid, N = 14, read-out: Cmax, test GLSM",2430 ng/mL
same,AUC(0-inf),"Cohort 2 fasted, B/F/TAF 2 h before aluminum/magnesium-containing antacid, N = 14, read-out: AUCinf, test GLSM",111000 ng·h/mL
same,concentration at 24 h,"Cohort 2 fasted, B/F/TAF 2 h before aluminum/magnesium-containing antacid, N = 14, read-out: C24, test GLSM",1650 ng/mL
same,AUC(0-inf),"Cohort 2 fasted, BIC alone (N = 14), read-out: AUCinf, reference GLSM",128000 ng·h/mL
same,concentration at 24 h,"Cohort 2 fasted, BIC alone (N = 14), read-out: C24, reference GLSM",1930 ng/mL
same,Cmax,"Cohort 2 fasted, BIC alone (N = 14), read-out: Cmax, reference GLSM",5840 ng/mL
same,AUC(0-inf),"Cohort 3, BIC alone (N = 14), fasted, read-out: AUCinf, reference GLSM",89900 ng·h/mL
same,concentration at 24 h,"Cohort 3, BIC alone (N = 14), fasted, read-out: C24, reference GLSM",1350 ng/mL
same,AUC(0-inf),"Cohort 3 fed, B/F/TAF with aluminum/magnesium-containing antacid simultaneous, N = 14, read-out: AUCinf, test GLSM",47900 ng·h/mL
same,concentration at 24 h,"Cohort 3 fed, B/F/TAF with aluminum/magnesium-containing antacid simultaneous, N = 14, read-out: C24, test GLSM",750 ng/mL
same,Cmax,"Cohort 3 fed, B/F/TAF with aluminum/magnesium-containing antacid simultaneous, N = 14, read-out: Cmax, test GLSM",2340 ng/mL
same,AUC(0-inf),"Cohort 3 fed, B/F/TAF with calcium carbonate simultaneous, N = 14, read-out: AUCinf, test GLSM",92900 ng·h/mL
same,concentration at 24 h,"Cohort 3 fed, B/F/TAF with calcium carbonate simultaneous, N = 14, read-out: C24, test GLSM",1430 ng/mL
same,Cmax,"Cohort 3 fed, B/F/TAF with calcium carbonate simultaneous, N = 14, read-out: Cmax, test GLSM",4070 ng/mL
same,AUC(0-inf),"Cohort 3 fed, B/F/TAF with ferrous fumarate simultaneous, N = 14, read-out: AUCinf, test GLSM",75400 ng·h/mL
same,concentration at 24 h,"Cohort 3 fed, B/F/TAF with ferrous fumarate simultaneous, N = 14, read-out: C24, test GLSM",1200 ng/mL
same,Cmax,"Cohort 3 fed, B/F/TAF with ferrous fumarate simultaneous, N = 14, read-out: Cmax, test GLSM",3410 ng/mL
